# “Also recorded” adds a separate entry of the source.
# Assays:
# rTRPM8 = target: T1, rTRPM8 (Rattus norvegicus, UniProt Q8R455); experiment: Ca2+ microfluorography assay, HEK293 cells expressing rTRPM8, menthol activation; type: cell-based
# T1 construct: expressed in transfected cells
# Procedure: This represents a similar activity as β–lactam 2 and a somewhat higher potency than the model TRPM8 antagonists AMTB.
# To measure the effect of the compounds against TRPM8 activity we used microfluorometry-based calcium flux assays with Fluo-4 NW Ca^2+ dye and fluorescence as described in [30]. Briefly, human embryonic kidney cell line (HEK293) cells stably transfected with rTRPM8 or hTRPM8 were seeded in 96-well plates at a cell density of 30,000 cells. After 2 days the medium was replaced with 100 μL of the dye, Fluo-4 NW, loading solution supplemented with probenecid 2.5 mM and incubated 1 h at 37 °C. The TRPM8 activity was measured using POLASTAR plate reader (BMG Labtech) setting the excitation wavelength at 485 nm and the emission wavelength at 520 nm. The baseline fluorescence was recorded for 3 cycles before the addition of vehicle compound at different concentrations and the antagonist, 10 μM AMTB. Fluorescence intensity was recorded during 7 more cycles and 100 μM menthol was added. Fluorescence intensity was recorded during 10 more cycles.
# Data analysis: The Z-factor was calculated in each assay using the following equation: […]. In all the experiments, the Z-factor was ≥0.5. The effect of the compounds against TRPM8 activity was determined by normalizing their effect on the maximum fluorescence observed after application of 100 μM menthol. Decrease in menthol signal was expressed as percentage of inhibition (%). All data are expressed as the mean ± standard deviation (SD). Data are expressed as the concentration exerting a half-maximal inhibition of agonist-induced [Ca^2+]i elevation (IC50), which was calculated again using GraphPad Prism® software. All determinations were performed in triplicate (n = 3) in 3 independent experiments (N = 3).
# rats = experiment: Behaviour observed after i.p. injection in the CCI study; type: in vivo, rat; details: i.p. 30 mg/kg
# Procedure: This behavior lasted 3-5 min and could possibly be related to the TRPV1 agonist activity of compound RGM8-51.
# Rats were allocated into 2 groups to receive RGM8-51 and vehicle (DMSO 2% i.pl., or 150 µL/kg i.p.) by either the i.pl. (10 µg in 20 µL; n = 5 animals) or i.p. (10 or 30 mg/kg in 150 µL/kg; n = 8 animals) route. Responses to cold/heat/mechanical stimulation were assessed 30 min before and 30 min after RGM8-51 or vehicle injection. Behavioral testing prior to drug administration served to ascertain baseline conditions and the stability of cold, heat and mechanical hypersensitivity after surgery. RGM-8-51 stock was prepared in DMSO (Sigma-Aldrich) and diluted in saline for injections. Data are given as the mean ± standard error of the mean (SEM) of the corresponding number of behavioral measurements/animals used. Statistical analysis was performed by using the paired t-test (GraphPad 8; San Diego, CA, USA).
# [1] = tested on: NTG-induced mechanical hypersensitivity in C57BL6 mice; experiment: NTG-induced mechanical hypersensitivity, von Frey test; type: in vivo, mouse
# Description: Administration of NTG intermittently produces a baseline hypersensitivity to mechanical stimulation, which can be measured by the von Frey test. The mechanical stimulus was applied at different times to obtain the time course of the effects produced after compound administration, and both male and female mice were used to investigate a possible sex dimorphism.
# C57BL6 mice (males and females, ≈25 g) (Envigo, Blackthorn, UK) were used for the study. All experiments were approved by the Institutional Animal and Ethical Committee of the Universidad Miguel Hernandez where experiments were conducted and they were in accordance with the guidelines of the Economic European Community and the Committee for Research and Ethical Issues of the International Association for the Study of Pain. All parts of the study concerning animal care were performed under the control of veterinarians. […] The 50% response threshold was calculated using the following formula:50% (g) threshold = (10^(Xf + kd))/10,000 where Xf is the value of the last von Frey filament applied; k is a correction factor based on pattern of responses (from the Dixon’s calibration table); d is the mean distance in log units between stimuli (here, 0.4).
# Von Frey threshold for each animal was calculated, according to the formula, and data analysis was performed by using GraphPad 6.0. […]
# T1 sequence (Q8R455 whole entry): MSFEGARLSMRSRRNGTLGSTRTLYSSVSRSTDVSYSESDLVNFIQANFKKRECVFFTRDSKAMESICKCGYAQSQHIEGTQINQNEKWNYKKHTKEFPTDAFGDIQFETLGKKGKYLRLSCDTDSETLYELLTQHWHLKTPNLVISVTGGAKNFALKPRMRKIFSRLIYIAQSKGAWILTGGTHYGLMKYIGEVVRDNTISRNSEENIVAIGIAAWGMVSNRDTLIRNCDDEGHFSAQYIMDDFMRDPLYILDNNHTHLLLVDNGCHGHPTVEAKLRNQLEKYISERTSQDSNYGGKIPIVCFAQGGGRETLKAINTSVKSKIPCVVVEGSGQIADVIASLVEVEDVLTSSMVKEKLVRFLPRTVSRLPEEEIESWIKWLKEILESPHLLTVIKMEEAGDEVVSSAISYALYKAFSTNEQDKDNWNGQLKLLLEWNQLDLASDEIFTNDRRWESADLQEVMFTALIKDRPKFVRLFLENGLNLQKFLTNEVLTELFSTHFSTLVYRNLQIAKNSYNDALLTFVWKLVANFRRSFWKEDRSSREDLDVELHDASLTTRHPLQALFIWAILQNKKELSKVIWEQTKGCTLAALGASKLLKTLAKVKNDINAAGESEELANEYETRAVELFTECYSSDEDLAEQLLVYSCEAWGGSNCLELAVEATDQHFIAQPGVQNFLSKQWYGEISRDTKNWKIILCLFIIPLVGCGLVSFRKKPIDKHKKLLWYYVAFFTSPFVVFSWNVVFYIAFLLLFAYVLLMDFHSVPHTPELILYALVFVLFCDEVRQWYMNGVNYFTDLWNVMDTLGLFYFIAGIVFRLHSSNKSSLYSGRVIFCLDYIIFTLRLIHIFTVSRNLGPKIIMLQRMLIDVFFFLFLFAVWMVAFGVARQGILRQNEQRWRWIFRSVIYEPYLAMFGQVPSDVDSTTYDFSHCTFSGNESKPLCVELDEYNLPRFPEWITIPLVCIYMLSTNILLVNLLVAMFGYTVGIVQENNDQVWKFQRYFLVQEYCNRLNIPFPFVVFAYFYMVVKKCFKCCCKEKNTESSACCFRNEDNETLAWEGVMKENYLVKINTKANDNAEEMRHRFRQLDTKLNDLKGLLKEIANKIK
smiles,measurement,setting,value
"C[C@@H]1C(=O)N(C[C@H](Cc2ccccc2)N(Cc2ccccc2)Cc2ccccc2)[C@]1(Cc1ccccc1)C(=O)OC(C)(C)C [RGM8-51, 4(S)-Benzyl-3S-methyl-4-(tert-butoxy)carbonyl-1-[(2′S-dibenzylamino-3′-phenyl)prop-1′-yl]-2-oxoazetidine]",IC50,"rTRPM8; HEK293-rTRPM8, 100 μM menthol",1.06 ± 1.21 µM
same,ability to activate TRPM8 channels (agonist activity),rTRPM8; HEK293 cells expressing rat or human TRPM8,did not have any ability to activate TRPM8 channels
same,duration of writhing behavior,rats,3 to 5 min
same,writhing behavior,rats,writhing behavior was observed in a small number of animals
same,"NTG-induced mechanical hypersensitivity, male mice","[1]; 30 mg/kg i.p., 60 min post-administration (only this dose and time)",significantly blocked
same,"NTG-induced mechanical hypersensitivity, female mice","[1]; 10 and 30 mg/kg i.p., significant at 30 min, lasting even after 120 min",fully blocked; also recorded: significantly reduces the hypersensitivity threshold induced by NTG

# — paper PMC8910920 (International Journal of Molecular Sciences, 2022)
